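Interpolation was linear, between the two tested concentrations surrounding the appropriate level; five concentrations were tested over 48 hours in 96-well plates. GI50 marks 50% less growth.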 Activity calls are given as the source filed them. Rule as the data show it: active = GI50 up to about 1.1 µM and inactive = higher.
Tests used:
Assay in all cases: NCI anticancer screen, dose series, 48 h
HT-29 = test system: HT-29
K562 = test system: K562
ACHN = test system: ACHN
786-0 = test system: 786-0
HOP-62 = test system: HOP-62
HL-60 = test system: HL-60
UACC-257 = test system: UACC-257
SN12C = test system: SN12C
M19-MEL = test system: M19-MEL
LXFL 529 = test system: LXFL 529
DLD-1 = test system: DLD-1
DMS-273 = test system: DMS-273
RXF 631 = test system: RXF 631
HCT-15 = test system: HCT-15
LOX IMVI = test system: LOX IMVI
UACC-62 = test system: UACC-62
SF-539 = test system: SF-539
NCI-H23 = test system: NCI-H23
U-251 = test system: U-251
RPMI-8226 = test system: RPMI-8226
SNB-19 = test system: SNB-19
SW-620 = test system: SW-620
UO-31 = test system: UO-31
OVCAR-4 = test system: OVCAR-4
A549 = test system: A549
SNB-75 = test system: SNB-75
SK-MEL-28 = test system: SK-MEL-28
SR = test system: SR
IGROV-1 = test system: IGROV-1
HCC 2998 = test system: HCC 2998
Malme-3M = test system: Malme-3M
COLO 205 = test system: COLO 205
A498 = test system: A498
NCI-H460 = test system: NCI-H460
CCRF-CEM = test system: CCRF-CEM
MOLT-4 = test system: MOLT-4
TK-10 = test system: TK-10
SK-MEL-2 = test system: SK-MEL-2
EKVX = test system: EKVX
XF498 = test system: XF498
HOP-18 = test system: HOP-18
OVCAR-5 = test system: OVCAR-5
RXF 393 = test system: RXF 393
SK-MEL-5 = test system: SK-MEL-5
NCI-H226 = test system: NCI-H226
KM12 = test system: KM12
NCI-H522 = test system: NCI-H522
KM-20L2 = test system: KM-20L2
SK-OV-3 = test system: SK-OV-3
OVCAR-3 = test system: OVCAR-3
HCT-116 = test system: HCT-116
CAKI-1 = test system: CAKI-1
SF-268 = test system: SF-268
OVCAR-8 = test system: OVCAR-8
HOP-92 = test system: HOP-92
M14 = test system: M14
SNB-78 = test system: SNB-78
SF-295 = test system: SF-295

Measured: GI50

Oc1cc(-c2ccco2)nc2cc3c(cc12)OCO3
38.3 µM: HCT-15
inactive: HT-29 43.3 µM | K562 6.61 µM | ACHN 91 µM | 786-0 26.5 µM | HOP-62 10.9 µM | HL-60 27.7 µM | UACC-257 60 µM | SN12C 55.5 µM | M19-MEL 44.9 µM | LXFL 529 58.9 µM | DLD-1 39 µM | DMS-273 20 µM | RXF 631 52.2 µM | LOX IMVI 50.6 µM | UACC-62 27.9 µM | SF-539 25.7 µM | NCI-H23 80.9 µM | U-251 > 100 µM | RPMI-8226 40.1 µM | SNB-19 27.1 µM | SW-620 25.9 µM | UO-31 46.2 µM | OVCAR-4 34.1 µM | A549 52.8 µM | SNB-75 12.5 µM | SK-MEL-28 > 100 µM | SR 54.3 µM | IGROV-1 29.6 µM | HCC 2998 > 100 µM | Malme-3M 42.4 µM | COLO 205 17.6 µM | A498 35.6 µM | NCI-H460 34.3 µM | CCRF-CEM 38.4 µM | MOLT-4 33.7 µM | TK-10 72.6 µM | SK-MEL-2 57.8 µM | EKVX > 100 µM | XF498 39.8 µM

COC1(OC)CC2CCCCC2=C(C)N1S(=O)(=O)c1ccccc1 (stereo unspecified)
> 100 µM: HCT-15
inactive: HOP-18 > 100 µM | OVCAR-5 > 100 µM | RXF 393 > 100 µM | HT-29 > 100 µM | K562 > 100 µM | ACHN > 100 µM | 786-0 > 100 µM | SK-MEL-5 > 100 µM | HOP-62 > 100 µM | HL-60 > 100 µM | UACC-257 > 100 µM | SN12C > 100 µM | M19-MEL > 100 µM | NCI-H226 > 100 µM | LXFL 529 > 100 µM | DLD-1 > 100 µM | DMS-273 > 100 µM | RXF 631 > 100 µM | LOX IMVI > 100 µM | UACC-62 > 100 µM | KM12 > 100 µM | NCI-H522 > 100 µM | SF-539 > 100 µM | NCI-H23 > 100 µM | U-251 > 100 µM | KM-20L2 > 100 µM | RPMI-8226 > 100 µM | SNB-19 > 100 µM | SW-620 > 100 µM | UO-31 > 100 µM | SK-OV-3 > 100 µM | OVCAR-3 > 100 µM | OVCAR-4 > 100 µM | A549 > 100 µM | HCT-116 > 100 µM | CAKI-1 > 100 µM | SNB-75 > 100 µM | SK-MEL-28 > 100 µM | SR > 100 µM | IGROV-1 > 100 µM | Malme-3M > 100 µM | SF-268 > 100 µM | COLO 205 > 100 µM | OVCAR-8 > 100 µM | NCI-H460 > 100 µM | CCRF-CEM > 100 µM | MOLT-4 > 10 µM | HOP-92 > 100 µM | M14 > 100 µM | SNB-78 > 100 µM | TK-10 > 100 µM | SK-MEL-2 > 100 µM | EKVX > 100 µM | SF-295 > 100 µM | XF498 > 100 µM
